Assay results taken from patent US9834558B2, “Substituted bridged urea analogs as sirtuin modulators” (GLAXOSMITHKLINE LLC, priority 2013, dated 2017).
Where a name gives a salt, the structure may show the parent alone.

Target: T1, SIRT1 (Homo sapiens, UniProt Q96EB6)
T1 sequence (Q96EB6 1-747): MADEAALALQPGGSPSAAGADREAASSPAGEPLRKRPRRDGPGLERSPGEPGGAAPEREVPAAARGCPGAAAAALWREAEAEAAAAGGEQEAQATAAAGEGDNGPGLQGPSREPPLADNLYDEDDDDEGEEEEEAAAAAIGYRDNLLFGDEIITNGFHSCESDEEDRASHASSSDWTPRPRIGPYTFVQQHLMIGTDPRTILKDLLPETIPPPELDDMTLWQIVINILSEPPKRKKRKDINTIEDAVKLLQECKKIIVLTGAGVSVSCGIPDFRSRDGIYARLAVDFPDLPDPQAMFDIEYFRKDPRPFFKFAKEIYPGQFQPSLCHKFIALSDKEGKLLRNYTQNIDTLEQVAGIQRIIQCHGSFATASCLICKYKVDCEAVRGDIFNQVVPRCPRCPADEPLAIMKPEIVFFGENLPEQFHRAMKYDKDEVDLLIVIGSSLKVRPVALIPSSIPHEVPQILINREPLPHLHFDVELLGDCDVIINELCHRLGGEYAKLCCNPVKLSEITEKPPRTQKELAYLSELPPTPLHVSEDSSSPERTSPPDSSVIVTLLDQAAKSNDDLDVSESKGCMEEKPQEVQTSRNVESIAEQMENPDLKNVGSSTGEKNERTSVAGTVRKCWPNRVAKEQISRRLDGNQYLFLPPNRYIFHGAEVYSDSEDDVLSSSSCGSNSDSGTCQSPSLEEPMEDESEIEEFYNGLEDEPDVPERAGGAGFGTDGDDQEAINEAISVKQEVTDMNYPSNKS
Assay: Trp mass spectrometry assay of SIRT1 activation
Format: biochemical
Settings: for TRP Activity (EC1.5) / Emax: Trp peptide assay; for TRP Activity (EC1.5): EC1.5 = concentration that results in 150% activation of SIRT1; for Emax: maximum activity relative to control (100%), read-out: TRP MAX RESP (percent maximum fold activation)
Description: Mass spectrometry based assays were used to identify modulators of SIRT1 activity. […] The peptide was labeled with the fluorophore STMR (excitation 540 nm/emission 580 nm) at the C-terminus. The sequence of the peptide substrate was based on p53 with several modifications. In addition, the methionine residue naturally present in the sequence was replaced with the norleucine because the methionine may be susceptible to oxidation during synthesis and purification. The Trp based assay utilized a peptide having an amino acid residues as follows: Ac-R-H-K-K(Ac)-W-NH2 (SEQ ID NO: 2).
The Trp mass spectrometry assay was conducted as follows. 0.5 μM peptide substrate and 120 μM βNAD^+ were incubated with 10 nM SIRT1 for 25 minutes at 25° C. in a reaction buffer (50 mM HEPES pH 7.5, […], 1 mM DTT, 0.05% BSA). The SIRT1 protein was obtained by cloning the SirT1 gene into a T7-promoter containing vector, which was then expressed in BL21(DE3) bacterial cells and purified as described in further detail below. Test compound was added at varying concentrations to this reaction mixture and the resulting reactions were monitored. After the 25 minute incubation with SIRT1, 10 μL of 10% formic acid was added to stop the reaction. The resulting reactions were sealed and frozen for later mass spec analysis. The relative SIRT1 activity was then determined by measuring the amount of O-acetyl-ADP-ribose (OAADPR) formed (or, alternatively, the amount of deacetylated Trp peptide generated) by the NAD-dependent sirtuin deacetylation reaction in the presence of varying concentrations of the test compound versus control reactions lacking the test compound. The degree to which the test agent activated deacetylation by SIRT1 was expressed as EC1.5 (i.e., the concentration of compound required to increase SIRT1 activity by 50% over the control lacking test compound), and Percent Maximum Activation (i.e., the maximum activity relative to control (100%) obtained for the test compound).
This time point was the same as that used for test compounds and, within the linear range, the endpoint represents a change in velocity.
For the above assay, SIRT1 protein was expressed and purified as follows. The SirT1 gene was cloned into a T7-promoter containing vector and transformed into BL21(DE3). The protein was expressed by induction with 1 mM IPTG as an N-terminal His-tag fusion protein at 18° C. overnight and harvested at 30,000×g. Cells were lysed with lysozyme in lysis buffer (50 mM Tris-HCl, 2 mM Tris[2-carboxyethyl]phosphine (TCEP), 10 μM ZnCl2, 200 mM NaCl) and further treated with sonication for 10 min for complete lysis. The protein was purified over a Ni-NTA column (Amersham) and fractions containing pure protein were pooled, concentrated and run over a sizing column (Sephadex S200 26/60 global). The peak containing soluble protein was collected and run on an Ion-exchange column (MonoQ). Gradient elution (200 mM-500 mM NaCl) yielded pure protein. This protein was concentrated and dialyzed against dialysis buffer (20 mM Tris-HCl, 2 mM TCEP) overnight. The protein was aliquoted and frozen at −80° C. until further use.
“NT” means not tested; “ND” means not determinable.

[1] = Trp peptide substrate, concentration giving 150% activation of SIRT1
[2] = Trp mass spectrometry assay, EC1.5 = concentration of test compound that results in 150% activation of SIRT1

| SMILES | TRP Activity (EC1.5) | Emax [%] | also measured |
| --- | --- | --- | --- |
| Cc1cc(-c2ccc3c(n2)N(C(=O)Nc2cnccn2)[C@H]2CCN3C2)cnn1 | B (B (EC1.5 1-25 μM)) | > 150 |  |
| O=C(Nc1cnccn1)N1c2cc(N3CCCC(C(F)(F)F)C3)ccc2N2CCC[C@H]1C2 (stereo partly shown) | A (A (EC1.5<1 μM)) | > 150 |  |
| O=C(O)c1cc(-c2ccc3c(n2)N(C(=O)Nc2cnccn2)[C@H]2CCN3C2)ccn1 [4-[(9S)-8-[(pyrazin-2-yl)carbamoyl]-1,6,8-triazatricyclo[7.2.1.0 {2,7}]dodeca-2(7),3,5-trien-5-yl]pyridine-2-carboxylic acid] | C (C (EC1.5>25 μM)) | < 150 |  |
| O=C(Nc1cccc(-c2cnco2)c1)N1c2nc(-c3cccc(C(F)(F)F)c3)ccc2N2CC[C@H]1C2 [68 (1)] |  |  | Tryp AVG EC1.5 (μM) [1]: A (A (EC1.5<1 μM)) |
| Cc1cnc2c(NC(=O)N3c4nc(-c5cccc(C(F)(F)F)c5)ccc4N4CC[C@H]3C4)cccc2n1 [76 (8)] |  |  | Tryp AVG EC1.5 (μM) [1]: A (A (EC1.5<1 μM)) |
| CCn1ncc2c(NC(=O)N3c4nc(-c5cccc(C(F)(F)F)c5)ccc4N4CC[C@H]3C4)cccc21 [81 (9)] |  |  | Tryp AVG EC1.5 (μM) [1]: A (A (EC1.5<1 μM)) |
| O=C(Nc1cccnc1)N1c2nc(-c3cccc(C(F)(F)F)c3)ccc2N2CCC[C@H]1C2 [314 (5)] |  |  | Tryp AVG EC1.5 (μM) (Trp mass spectrometry assay, concentration of test compound giving 150% activation of SIRT1): A (A (EC1.5<1 μM)) |
| NCc1ccc(NC(=O)N2c3nc(-c4cccc(C(F)(F)F)c4)ccc3N3CCC[C@H]2C3)cc1 [444 (4), (9S)—N-(4-(aminomethyl)phenyl)-2-(3-(trifluoromethyl)phenyl)-8,9-dihydro-6H-5,9-methanopyrido[2,3-b][1,4]diazocine-10(7H)-carboxamide hydrochloride] |  |  | Tryp AVG EC1.5 (μM) [2]: A (A (EC1.5<1 μM)) |
| O=C(CCCCCNC(=O)c1ccc(-c2c3ccc(=O)cc-3oc3cc(O)ccc23)c(C(=O)O)c1)NCc1ccc(NC(=O)N2c3nc(-c4cccc(C(F)(F)F)c4)ccc3N3CCC[C@H]2C3)cc1 [546 (3), 2-(6-hydroxy-3-oxo-3H-xanthen-9-yl)-5-((6-oxo-6-((4-((9S)-2-(3-(trifluoromethyl)phenyl)-7,8,9,10-tetra-hydro-6H-5,9-methanopyrido[2,3-b][1,4]diazocine-10-carboxamido)benzyl)amino)hexyl)carbamoyl)benzoic acid] |  |  | Tryp AVG EC1.5 (μM) [2]: B (B (EC1.5 1-25 μM)) |
| O=C(Nc1ccccn1)N1c2nc(-c3cccc(C(F)(F)F)c3)ccc2N2CC[C@H]1C2 [816 (7)] |  |  | Tryp AVG EC1.5 (μM) (concentration giving 150% activation of SIRT1, Trp peptide substrate): A (A (EC1.5<1 μM)) |
| Cc1cc(-c2ccc3c(n2)N(C(=O)Nc2cnccn2)[C@@H]2CCN3C2)ccn1 [(9R)-5-(2-methylpyridin-4-yl)-N-(pyrazin-2-yl)-1,6,8-triazatricyclo[7.2.1.0 {2,7}]dodeca-2(7),3,5-triene-8-carboxamide] | B (B (EC1.5 1-25 μM)) | > 150 |  |
| Cc1ccc(-c2cc(C)c3c(n2)N(C(=O)Nc2ccccn2)[C@H]2CCN3C2)cn1 [(9S)-3-methyl-5-(6-methylpyridin-3-yl)-N-(pyridin-2-yl)-1,6,8-triazatricyclo[7.2.1.0^{2,7}]dodeca-2,4,6-triene-8-carboxamide] | B (B (EC1.5 1-25 μM)) | > 150 |  |
| Cc1ccc(-c2cc(C)c3c(n2)N(C(=O)Nc2cccnc2)[C@H]2CCN3C2)cn1 [(9S)-3-methyl-5-(6-methylpyridin-3-yl)-N-(pyridin-3-yl)-1,6,8-triazatricyclo[7.2.1.0^{2,7}]dodeca-2,4,6-triene-8-carboxamide] | B (B (EC1.5 1-25 μM)) | > 150 |  |
| O=C(Nc1cnccn1)N1c2nc(-c3cnn(C4CC4)c3)ccc2N2CC[C@H]1C2 [(9S)-5-(1-cyclopropyl-1H-pyrazol-4-yl)-N-(pyrazin-2-yl)-1,6,8-triazatricyclo[7.2.1.0 {2,7}]dodeca-2(7),3,5-triene-8-carboxamide] | A (A (EC1.5<1 μM)) | > 150 |  |
| CCn1cc(-c2ccc3c(n2)N(C(=O)Nc2cnccn2)[C@H]2CCN3C2)cn1 [(9S)-5-(1-ethyl-1H-pyrazol-4-yl)-N-(pyrazin-2-yl)-1,6,8-triazatricyclo[7.2.1.0 {2,7}]dodeca-2(7),3,5-triene-8-carboxamide] | B (B (EC1.5 1-25 μM)) | > 150 |  |
| Cn1ccc(-c2ccc3c(n2)N(C(=O)Nc2cnccn2)[C@H]2CCN3C2)n1 [(9S)-5-(1-methyl-1H-pyrazol-3-yl)-N-(pyrazin-2-yl)-1,6,8-triazatricyclo[7.2.1.0 {2,7}]dodeca-2(7),3,5-triene-8-carboxamide] | B (B (EC1.5 1-25 μM)) | > 150 |  |
| Cn1cc(-c2ccc3c(n2)N(C(=O)Nc2cnccn2)[C@H]2CCN3C2)cn1 [(9S)-5-(1-methyl-1H-pyrazol-4-yl)-N-(pyrazin-2-yl)-1,6,8-triazatricyclo[7.2.1.0 {2,7}]dodeca-2(7),3,5-triene-8-carboxamide] | B (B (EC1.5 1-25 μM)) | > 150 |  |
| Cn1ccc(-c2ccc3c(n2)N(C(=O)Nc2cnccn2)[C@H]2CCN3C2)cc1=O [(9S)-5-(1-methyl-2-oxo-1,2-dihydropyridin-4-yl)-N-(pyrazin-2-yl)-1,6,8-triazatricyclo[7.2.1.0^{2,7}]dodeca-2(7),3,5-triene-8-carboxamide] | B (B (EC1.5 1-25 μM)) | > 150 |  |
| Cn1ccc(-c2ccc3c(n2)N(C(=O)Nc2cccnc2)[C@H]2CCN3C2)cc1=O [(9S)-5-(1-methyl-2-oxo-1,2-dihydropyridin-4-yl)-N-(pyridin-3-yl)-1,6,8-triazatricyclo[7.2.1.0 {2,7}]dodeca-2(7),3,5-triene-8-carboxamide] | B (B (EC1.5 1-25 μM)) | > 150 |  |
| Cn1cc(-c2ccc3c(n2)N(C(=O)Nc2cnccn2)[C@H]2CCN3C2)ccc1=O [(9S)-5-(1-methyl-6-oxo-1,6-dihydropyridin-3-yl)-N-(pyrazin-2-yl)-1,6,8-triazatricyclo[7.2.1.0^2,7]dodeca-2(7),3,5-triene-8-carboxamide] | C (C (EC1.5>25 μM)) | < 150 |  |
| Cn1cc(-c2ccc3c(n2)N(C(=O)Nc2cccnc2)[C@H]2CCN3C2)ccc1=O [(9S)-5-(1-methyl-6-oxo-1,6-dihydropyridin-3-yl)-N-(pyridin-3-yl)-1,6,8-triazatricyclo[7.2.1.0^2,7]dodeca-2(7),3,5-triene-8-carboxamide] | B (B (EC1.5 1-25 μM)) | > 150 |  |
| CC1(C)CN(c2ccc3c(n2)N(C(=O)Nc2cnccn2)[C@H]2CCN3C2)CCO1 [(9S)-5-(2,2-dimethylmorpholin-4-yl)-N-(pyrazin-2-yl)-1,6,8-triazatricyclo[7.2.1.0 {2,7}]dodeca-2(7),3,5-triene-8-carboxamide] | A (A (EC1.5<1 μM)) | > 150 |  |
